Assay results from patent US20200054651A1, “COMPOSITIONS AND METHODS FOR MODULATING PPP2R1A” (The Regents of the University of California, priority 2017, published 2020).

Key:
ACAT1 C196 = target: T1, ACAT1 C196 (Homo sapiens, UniProt P24752); assay: isoTOP-ABPP after in situ treatment of 231MFP cells; assay type: binding; conditions: 100 μM, 4 h in 231MFP cells in situ
T1 construct: IsoTOP-ABPP analysis of DKM 2-90 treatment in 231MFP cells in situ; endogenous in cells; host or cells: 231MFP cells
T1 sequence (P24752 34-427): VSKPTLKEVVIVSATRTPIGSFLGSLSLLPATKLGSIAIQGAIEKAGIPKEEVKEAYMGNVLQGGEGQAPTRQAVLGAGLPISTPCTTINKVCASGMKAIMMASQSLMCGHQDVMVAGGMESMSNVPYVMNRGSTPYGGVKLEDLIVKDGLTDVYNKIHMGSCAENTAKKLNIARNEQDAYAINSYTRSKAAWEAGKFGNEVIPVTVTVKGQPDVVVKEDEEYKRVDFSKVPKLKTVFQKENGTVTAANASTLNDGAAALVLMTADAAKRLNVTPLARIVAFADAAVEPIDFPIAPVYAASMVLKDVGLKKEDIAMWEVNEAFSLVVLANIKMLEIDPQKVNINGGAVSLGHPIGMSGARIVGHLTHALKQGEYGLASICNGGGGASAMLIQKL
Experimental: (§1) IsoTOP-ABPP studies were performed using the methods described in “Nature 534(7608), 570-574 (2016)” by Backus K. M., et al. and “Nature 468(7325), 790-795 (2010)” by Weerapana E., et al. […] Then, IAyne (iodoacetamide-alkyne) labeling was performed for 1 hour at room temperature. CuAAC was used by sequential addition of tris(2-carboxyethyl)phosphine (1 mM), tris[(1-benzyl-1H-1,2,3-triazol-4-yl)methyl]amine (34 μM), copper (II) sulfate (1 mM), and biotin-linker-azide where the linker was functionalized with a TEV protease recognition sequence along with an isotopically light or heavy valine for treatment of control or treated proteome, respectively. After click reactions, proteomes were precipitated by centrifugation at 6500×g, washed in ice-cold methanol, combined in a 1:1 control/treated ratio, washed again, then denatured and re-solubilized by heating in 1.2% SDS/PBS to 80° C. for 5 minutes. Insoluble components were precipitated by centrifugation at 6500×g and soluble proteome was diluted in 0.2% SDS/PBS (5 ml). Labeled proteins were bound to avidin-agarose beads (170 μl re-suspended beads/sample) while rotating overnight at 4° C. Bead-linked proteins were enriched by washing three times each in PBS and water, then re-suspended in urea/PBS (6 M), reduced in TCEP (1 mM), alkylated with iodoacetamide (18 mM), then washed and re-suspended in urea/PBS (2 M), and finally trypsinized overnight with 0.5 μg/μl sequencing grade trypsin. Tryptic peptides were eluted off. Beads were washed in PBS (3 times) and water (3 times), washed in TEV buffer solution (water, TEV buffer, 100 μM dithiothreitol), and re-suspended in buffer with Ac-TEV protease and then incubated overnight. Peptides were diluted in water, acidified with formic acid (1.2 M), and prepared for analysis.
(§2) Peptides from all proteomic experiments were pressure-loaded onto an Agilent 600 series RP-HPLC system equipped with a capillary tubing (250 mm) packed with Aqua C18 reverse-phase resin (4 cm). The system was previously equilibrated with a gradient (0% B to 100% B over 10 minutes, 100% B for 5 minutes, then 0% B for 5 minutes; buffer A: 95:5 water:acetonitrile, 0.1% formic acid; buffer B: 80:20 acetonitrile:water, 0.1% formic acid). The samples were then attached using a MicroTee PEEK 360 μm fitting to a laser pulled column (13 cm) packed with Aqua C18 reverse-phase resin (10 cm) and strong-cation exchange resin (3 cm) for isoTOP-ABPP studies. Samples were analyzed using an Q Exactive Plus mass spectrometer using a 5-step Multidimensional Protein Identification Technology (MudPIT) program. The system was run using a gradient (5% B to 55% B; buffer A: 95:5 water:acetonitrile, 0.1% formic acid; buffer B: 80:20 acetonitrile:water, 0.1% formic acid), along with a salt bump feeding aqueous ammonium acetate (500 mM) at an increment of 0%, 25%, 50%, 80%, to 100%. Data was collected in data-dependent acquisition mode with dynamic exclusion enabled (60 sec). One full MS scan (400-1800 m/z) (MS1 scan) was conducted, followed by MS2 scan (ITMS) (15 times) of the most abundant ions. Heated capillary temperature was set to 200° C. and the nanospray voltage was set to 2.75 kV.
(§3) Data was extracted in the form of MS1 and MS2 files using Raw Extractor 1.9.9.2 and searched against the Uniprot […] database using ProLuCID search methodology in IP2 v.3, described in “J Proteomics 129:16-24 (2015)” by Xu T, et al. Cysteine residues were searched with a static modification for carboxyaminomethylation (+m/z 57.02146), up to two differential modifications for methionine oxidation, and either the light or heavy TEV tags (+m/z 464.28596 or +m/z 470.29977, respectively). Peptides were required to have at least one tryptic end and to contain the TEV modification. ProLUCID data was filtered through DTASelect to achieve a peptide false-positive rate below 1%. […]

CLIC4 C35 = target: T2, CLIC4 C35 (Homo sapiens, UniProt Q9Y696); assay: as above; assay type: binding; conditions: 100 μM, 4 h in 231MFP cells in situ
T2 construct: IsoTOP-ABPP analysis of DKM 2-90 treatment in 231MFP cells in situ; endogenous in cells; host or cells: 231MFP cells
T2 sequence (Q9Y696 whole entry): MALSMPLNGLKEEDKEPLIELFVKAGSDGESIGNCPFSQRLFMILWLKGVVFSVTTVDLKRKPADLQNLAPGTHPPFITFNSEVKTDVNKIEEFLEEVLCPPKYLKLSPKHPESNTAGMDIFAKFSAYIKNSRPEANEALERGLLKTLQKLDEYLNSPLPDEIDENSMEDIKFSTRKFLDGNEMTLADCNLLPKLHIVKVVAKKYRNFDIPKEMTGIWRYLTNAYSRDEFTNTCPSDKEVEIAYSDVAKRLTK
Experimental: as §1, §2, §3

SCP2 C307 = target: T3, SCP2 C307 (Homo sapiens, UniProt P22307); assay: as above; assay type: binding; conditions: 100 μM, 4 h in 231MFP cells in situ
T3 construct: IsoTOP-ABPP analysis of DKM 2-90 treatment in 231MFP cells in situ; endogenous in cells; host or cells: 231MFP cells
T3 sequence (P22307 1-547): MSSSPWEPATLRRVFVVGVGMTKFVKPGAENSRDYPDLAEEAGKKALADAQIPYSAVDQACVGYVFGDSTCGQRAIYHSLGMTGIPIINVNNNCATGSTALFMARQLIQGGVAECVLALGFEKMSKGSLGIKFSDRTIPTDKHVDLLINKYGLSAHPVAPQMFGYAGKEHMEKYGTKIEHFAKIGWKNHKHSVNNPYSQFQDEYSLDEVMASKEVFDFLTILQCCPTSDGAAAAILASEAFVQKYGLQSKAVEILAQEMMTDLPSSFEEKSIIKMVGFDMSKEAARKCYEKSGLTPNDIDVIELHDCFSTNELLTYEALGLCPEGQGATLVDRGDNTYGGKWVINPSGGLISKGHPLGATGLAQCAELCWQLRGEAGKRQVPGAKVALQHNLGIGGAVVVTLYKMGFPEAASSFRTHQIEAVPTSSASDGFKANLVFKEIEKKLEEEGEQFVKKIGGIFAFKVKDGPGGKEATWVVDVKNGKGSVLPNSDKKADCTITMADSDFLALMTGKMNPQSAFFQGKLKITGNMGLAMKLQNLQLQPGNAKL
Experimental: as §1, §2, §3

TXNDC17 C43 = target: T4, TXNDC17 C43 (Homo sapiens, UniProt Q9BRA2); assay: as above; assay type: binding; conditions: 100 μM, 4 h in 231MFP cells in situ
T4 construct: IsoTOP-ABPP analysis of DKM 2-90 treatment in 231MFP cells in situ; endogenous in cells; host or cells: 231MFP cells
T4 sequence (Q9BRA2 1-123): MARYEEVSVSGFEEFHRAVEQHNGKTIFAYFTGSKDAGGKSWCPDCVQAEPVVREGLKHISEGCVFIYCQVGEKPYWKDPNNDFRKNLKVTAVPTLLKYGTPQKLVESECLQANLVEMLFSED
Experimental: as §1, §2, §3

MCF7 cells = assay: MCF7 cell proliferation; assay type: cell-based; conditions: 10 μM, 48 h

`O=C(CCl)Nc1ccc2c(c1)OCCO2` [DKM 2-90, 2-Chloro-N-(2,3-dihydrobenzo[β][1,4]dioxin-6-yl)acetamide] was tested, and the “isotopically light to heavy ratio, ACAT1 C196” value (ACAT1 C196) was > 5, the “isotopically light to heavy ratio, CLIC4 C35” value (CLIC4 C35) was > 5 and the “isotopically light to heavy ratio, SCP2 C307” value (SCP2 C307) was > 5. The “isotopically light to heavy ratio, TXNDC17 C43” value (TXNDC17 C43) was > 5.
With `CC1=C(CO)C(=O)O[C@@H]([C@@H](C)[C@H]2CC[C@H]3[C@@H]4C[C@H]5O[C@]56[C@@H](O)C=CC(=O)[C@]6(C)[C@H]4CC[C@]23C)C1` [withaferin A, reference compound] the cell proliferation (MCF7 cells) was “impairs”.
